Tests used:
Assay type in all cases: in vivo, human
[1] = tested on: SLC39A8; experiment: Cox proportional hazard model using SLC39A8 ΔCt values in qRT-PCR of NSCLC patients treated with chemotherapy; settings: SLC39A8 expression
Description: (§1) Patient samples. All NSCLC patients were staged I, II, or IIIA at the time of diagnosis. Tumor tissues were collected in surgical resections and were then formalin fixed or paraffin embedded until used for RNA extraction. Tumor cell content was above 50% for qRT-PCR assays. Those with missing AJCC staging information, missing histology, death within 30 days of resection or from other disease conditions were excluded from further analysis. A total of 122 NSCLC patient samples were obtained from Case Western Reserve University (CWRU) Comprehensive Cancer Center. […] The tissue collection in this study was approved by an Institutional Review Board (IRB) at each institution.
(§2) RNA extraction, and quality and concentration assessments. […] The quality and integrity of the RNA, the 28S to 18S ratio, and a visual image of the 28S and 18S bands were evaluated on the 2100 Bioanalyzer (Agilent Technologies, CA). […] The RNA concentration of each sample was assessed using a Nanodrop-1000 Spectrophotometer (NanoDrop Tech, Germany). […]
(§3) Real-time quantitative RT-PCR low-density arrays. […]
(§4) Three hundred thirty seven (337) tumor samples were analyzed with good RNA quality using TaqMan microfluidic low-density array (LDA) plates on an ABI 7900HT Fast RT-PCR instrument (Applied Biosystems).

[2] = tested on: FUT7; experiment: Cox proportional hazard model using FUT7 ΔCt values in qRT-PCR of NSCLC patients treated with chemotherapy; settings: FUT7 expression
Description: Patient samples. All NSCLC patients were staged I, II, or IIIA at the time of diagnosis. Tumor tissues were collected in surgical resections and were then formalin fixed or paraffin embedded until used for RNA extraction. Tumor cell content was above 50% for qRT-PCR assays. Those with missing AJCC staging information, missing histology, death within 30 days of resection or from other disease conditions were excluded from further analysis. A total of 122 NSCLC patient samples were obtained from Case Western Reserve University (CWRU) Comprehensive Cancer Center. Total RNA of good quality was extracted from 89 tumor specimens. […]
RNA extraction, and quality and concentration assessments. […] The quality and integrity of the RNA, the 28S to 18S ratio, and a visual image of the 28S and 18S bands were evaluated on the 2100 Bioanalyzer (Agilent Technologies, CA). RNA assessed as having good quality from […] tumor samples was included for further analysis. The RNA concentration of each sample was assessed using a Nanodrop-1000 Spectrophotometer (NanoDrop Tech, Germany). […]
as §3
Three hundred thirty seven (337) tumor samples were analyzed with good RNA quality using TaqMan microfluidic low-density array (LDA) plates on an ABI 7900HT Fast RT-PCR instrument (Applied Biosystems). Total RNA samples were analyzed on an Agilent 2100 Bioanalyzer RNA 6000 Nano LabChip. […]

[3] = tested on: ABCC4; experiment: Cox proportional hazard model using ABCC4 ΔCt values in qRT-PCR of NSCLC patients treated with chemotherapy; settings: ABCC4 expression; patients treated with the named agent(s)
Description: as §1, §2, §3, §4

Question: With `Nc1nc2[nH]cc(CCc3ccc(C(=O)N[C@@H](CCC(=O)O)C(=O)O)cc3)c2c(=O)[nH]1` [Alimta, pemetrexed] as the compound, how does the Chemosensitive/resistant [1] read?
Answer: Chemoresistant

Question: For `N.N.O=C([O-])C1(C(=O)[O-])CCC1.[Pt+2]` [Carboplatin, carboplatin], which Chemosensitive/resistant [2] is on record?
Answer: Chemosensitive

Question: For `CC(=O)O[C@H]1C(=O)[C@@]2(C)[C@H]([C@H](OC(=O)c3ccccc3)[C@]3(O)C[C@H](OC(=O)[C@H](O)[C@@H](NC(=O)c4ccccc4)c4ccccc4)C(C)=C1C3(C)C)[C@]1(OC(C)=O)CO[C@@H]1C[C@@H]2O` [Taxol, paclitaxel], which Chemosensitive/resistant [3] is on record?
Answer: Chemoresistant

Question: What about the Chemosensitive/resistant [1] of the same compound?
Answer: Chemoresistant
